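All cell lines were grown in 96-well plates and treated with compound for 48 hours. Definition used: TGI = concentration required for complete inhibition of growth.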
Assays:
Assay in all cases: inhibition of tumour cell growth, NCI panel, 48 h
HOP-92 NSCLC = system: HOP-92 NSCLC
SW-620 colon = system: SW-620 colon
M14 melanoma = system: M14 melanoma
RPMI-8226 leukemia = system: RPMI-8226 leukemia
HCT-116 colon = system: HCT-116 colon
NCI-H23 lung = system: NCI-H23 lung
HS 578T breast = system: HS 578T breast
SK-MEL-28 melanoma = system: SK-MEL-28 melanoma
SK-OV-3 ovarian = system: SK-OV-3 ovarian
A498 renal = system: A498 renal
OVCAR-8 ovarian = system: OVCAR-8 ovarian
SR leukemia = system: SR leukemia
SF-295 CNS = system: SF-295 CNS
EKVX NSCLC = system: EKVX NSCLC
MALME-3M melanoma = system: MALME-3M melanoma
SN12C renal = system: SN12C renal
UACC-257 melanoma = system: UACC-257 melanoma
HL-60(TB) leukemia = system: HL-60(TB) leukemia
NCI/ADR-RES ovarian = system: NCI/ADR-RES ovarian
UACC-62 melanoma = system: UACC-62 melanoma
OVCAR-3 ovarian = system: OVCAR-3 ovarian
NCI-H460 lung = system: NCI-H460 lung
786-0 renal = system: 786-0 renal
SNB-75 CNS = system: SNB-75 CNS
NCI-H522 lung = system: NCI-H522 lung
PC-3 prostate = system: PC-3 prostate
MCF7 breast = system: MCF7 breast
T-47D breast = system: T-47D breast
A549 NSCLC = system: A549 NSCLC
SK-MEL-5 melanoma = system: SK-MEL-5 melanoma
HCT-15 colon = system: HCT-15 colon
U251 CNS = system: U251 CNS
OVCAR-4 ovarian = system: OVCAR-4 ovarian
RXF 393 renal = system: RXF 393 renal
TK-10 renal = system: TK-10 renal
SNB-19 CNS = system: SNB-19 CNS
HT29 colon = system: HT29 colon
SF-539 CNS = system: SF-539 CNS
COLO 205 colon = system: COLO 205 colon
DU-145 prostate = system: DU-145 prostate
HCC-2998 colon = system: HCC-2998 colon
ACHN renal = system: ACHN renal
BT-549 breast = system: BT-549 breast
SK-MEL-2 melanoma = system: SK-MEL-2 melanoma
UO-31 renal = system: UO-31 renal
MDA-N = system: MDA-N
SF-268 CNS = system: SF-268 CNS
MDA-MB-435 = system: MDA-MB-435
KM12 colon = system: KM12 colon
CAKI-1 renal = system: CAKI-1 renal
HOP-62 NSCLC = system: HOP-62 NSCLC
K-562 leukemia = system: K-562 leukemia
MDA-MB-231 breast = system: MDA-MB-231 breast
CCRF-CEM leukemia = system: CCRF-CEM leukemia
OVCAR-5 ovarian = system: OVCAR-5 ovarian
NCI-H226 lung = system: NCI-H226 lung
IGROV1 ovarian = system: IGROV1 ovarian
LOX IMVI melanoma = system: LOX IMVI melanoma

COC(=O)CC1C=CC(C)(OC)OO1 (stereo not drawn)
TGI (HOP-92 NSCLC): > 100 µM | TGI (SW-620 colon): > 100 µM | TGI (M14 melanoma): > 100 µM | TGI (RPMI-8226 leukemia): > 100 µM | TGI (HCT-116 colon): > 100 µM | TGI (NCI-H23 lung): > 100 µM | TGI (HS 578T breast): > 100 µM | TGI (SK-MEL-28 melanoma): > 100 µM | TGI (SK-OV-3 ovarian): > 100 µM | TGI (A498 renal): > 100 µM | TGI (OVCAR-8 ovarian): > 100 µM | TGI (SR leukemia): > 100 µM | TGI (SF-295 CNS): > 100 µM | TGI (EKVX NSCLC): > 100 µM | TGI (MALME-3M melanoma): > 100 µM | TGI (SN12C renal): > 100 µM | TGI (UACC-257 melanoma): > 100 µM | TGI (HL-60(TB) leukemia): > 100 µM | TGI (NCI/ADR-RES ovarian): > 100 µM | TGI (UACC-62 melanoma): > 100 µM | TGI (OVCAR-3 ovarian): > 100 µM | TGI (NCI-H460 lung): 24.4 µM | TGI (786-0 renal): > 100 µM | TGI (SNB-75 CNS): > 100 µM | TGI (NCI-H522 lung): 55.5 µM | TGI (PC-3 prostate): > 100 µM | TGI (MCF7 breast): > 100 µM | TGI (T-47D breast): > 100 µM | TGI (A549 NSCLC): > 100 µM | TGI (SK-MEL-5 melanoma): > 100 µM | TGI (HCT-15 colon): > 100 µM | TGI (U251 CNS): > 100 µM | TGI (OVCAR-4 ovarian): > 100 µM | TGI (RXF 393 renal): > 100 µM | TGI (TK-10 renal): > 100 µM | TGI (SNB-19 CNS): > 100 µM | TGI (HT29 colon): > 100 µM | TGI (SF-539 CNS): > 100 µM | TGI (COLO 205 colon): > 100 µM | TGI (DU-145 prostate): > 100 µM | TGI (HCC-2998 colon): > 100 µM | TGI (ACHN renal): > 100 µM | TGI (BT-549 breast): > 100 µM | TGI (SK-MEL-2 melanoma): > 100 µM | TGI (UO-31 renal): > 100 µM | TGI (MDA-N): > 100 µM | TGI (SF-268 CNS): > 100 µM | TGI (MDA-MB-435): > 100 µM | TGI (KM12 colon): > 100 µM | TGI (CAKI-1 renal): > 100 µM | TGI (HOP-62 NSCLC): > 100 µM | TGI (K-562 leukemia): > 100 µM | TGI (MDA-MB-231 breast): > 100 µM | TGI (CCRF-CEM leukemia): 97.9 µM | TGI (OVCAR-5 ovarian): > 100 µM | TGI (NCI-H226 lung): > 100 µM | TGI (IGROV1 ovarian): > 100 µM | TGI (LOX IMVI melanoma): > 100 µM

— PubChem BioAssay (NCI)
